What was measured:
[1] = test system: human A2A^Δ40R (pHALO-tagged); type: binding
[2] = test system: non-transfected HEK-293T cells; assay: ERK1/2 phosphorylation in non-transfected cells; type: cell-based, human; conditions: non-transfected HEK-293T cells (Fig. S1A)
[3] = biological target: A2AR (Homo sapiens, UniProt P29274); assay: cAMP determination; conditions: against all agonists (Fig. S8)
Sequence of A2AR (P29274 whole entry): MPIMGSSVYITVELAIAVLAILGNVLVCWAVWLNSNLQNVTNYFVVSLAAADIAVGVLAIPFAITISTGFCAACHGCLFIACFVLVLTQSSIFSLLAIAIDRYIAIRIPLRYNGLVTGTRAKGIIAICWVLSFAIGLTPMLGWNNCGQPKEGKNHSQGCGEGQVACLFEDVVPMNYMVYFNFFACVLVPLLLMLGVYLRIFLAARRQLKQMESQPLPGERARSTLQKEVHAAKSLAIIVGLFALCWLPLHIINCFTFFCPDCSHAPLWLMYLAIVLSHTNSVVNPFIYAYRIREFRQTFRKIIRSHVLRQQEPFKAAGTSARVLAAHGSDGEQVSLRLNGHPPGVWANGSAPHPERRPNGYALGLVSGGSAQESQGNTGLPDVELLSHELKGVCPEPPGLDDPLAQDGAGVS

ΔΔG (binding free energy difference between wild type and truncated receptor) [1] | effect of antagonist on agonist-induced cAMP production [3] | SMILES | ERK1/2 phosphorylation vs basal [2]
0.5 kcal/mol |  | CCNC(=O)[C@H]1O[C@@H](n2cnc3c(N)nc(NCCc4ccc(CCC(=O)O)cc4)nc32)[C@H](O)[C@@H]1O [CGS-21680] | not significantly different to the basal condition
 | blockade of cAMP production | Nc1nc2c(cnn2CCc2ccccc2)c2nc(-c3ccco3)nn12 [SCH-58261] | 

— article PMC7550916 (Computational and Structural Biotechnology Journal, 2020)
